Results taken from patent US9234018B2, “Compositions and methods for the treatment of VprBP-related cancers” (University of Southern California, priority 2013, dated 2016).

How the values were obtained:
CSNK1D = CSNK1D (Homo sapiens, UniProt P48730); assay: Kinase selectivity panel; type: biochemical
AURKA = AURKA (Homo sapiens, UniProt O14965); assay: Kinase selectivity panel; type: biochemical
CDK7 = CDK7 (Homo sapiens, UniProt P50613); assay: Kinase selectivity panel; type: biochemical
SYK = SYK (Homo sapiens, UniProt P43405); assay: Kinase selectivity panel; type: biochemical
PKN2 = PKN2 (Homo sapiens, UniProt Q16513); assay: Kinase selectivity panel; type: biochemical
AKT3 = AKT3 (Homo sapiens, UniProt Q9Y243); assay: Kinase selectivity panel; type: biochemical
GSK3β = GSK3β (Homo sapiens, UniProt P49841); assay: Kinase selectivity panel; type: biochemical
CDK2 = CDK2 (Homo sapiens, UniProt P24941); assay: Kinase selectivity panel; type: biochemical
[1] = Mouse pharmacokinetics of B32B3; type: in vivo; settings: plasma, dose of 5 mg/kg in mice
Description: Mouse pharmacokinetic study was carried out using mice (n=5) that were fasted for 12 h prior to and 2 h after dosing with B32B3 (5 mg/kg). Blood samples were collected from orbital sinus at 10, 30, 60, 120, 240, and 480 min post dose. The plasma was separated from blood samples by centrifugation and analyzed in the Agilent 1200 HPLC system coupled to Agilent 6460A QQQ mass spectrophotometer. The plasma concentration-time data were analyzed by noncompartmental analysis using WinNonlin version 4.1 (Pharsight).

STK33 = STK33 (Homo sapiens, UniProt Q9BYT3); assay: Kinase selectivity panel; type: biochemical
MLC cells = assay: Cell viability by MTT assay in normal cells; type: cell-based; settings: concentrations up to 5 mM, 24 h; cells lacking VprBP-mediated H2AT120p
Description: FIGS. 8A-8I show characterization of B32B3 as a small-molecule VprBP kinase inhibitor, related to FIG. 4. (FIG. 8A) DU145 cells were infected with mock lentiviruse, VprBP-expressing shRNA lentivirus or Flag-VprBP-expressing lentivirus, and treated with the indicated concentrations of B32B3 for 24 h. Changes in H2AT120p as the results of B32B3 treatment were determined by the quantitative estimates of Western band intensity. Results represent the means±S.D. of three independent experiments. (FIG. 8B) DU145 cells were treated with the indicated concentrations of B32B3 and B20H6 for 72 h. Cell viability was measured by the MTT assay and was normalized to cells not exposed to the compounds. Data represent the means±S.D. of three independent experiments. […] (FIG. 8D) MLC cells were treated with B32B3 at the indicated doses for 24 h, and cell viability was assessed by MTT assay. […] (FIG. 8E) VprBP-mediated H2AT120p was analyzed in the presence of increasing concentrations of ATP and B32B3. (FIG. 8F) Body weights of vehicle or B32B3-treated mice were monitored during the treatment period. […] The stability of B32B3 in plasma was determined by LC-MS/MS at the indicated time points. […] Blood samples were collected at the indicated time points, and the concentration of B32B3 in plasma was analyzed by HPLC coupled mass spectrophotometry. […]

BUB1 = BUB1 (Homo sapiens, UniProt O43683); assay: Kinase selectivity panel; type: biochemical
RSK2 = RSK2 (Homo sapiens, UniProt P51812); assay: Kinase selectivity panel; type: biochemical

BUB1, sequence (O43683 whole entry): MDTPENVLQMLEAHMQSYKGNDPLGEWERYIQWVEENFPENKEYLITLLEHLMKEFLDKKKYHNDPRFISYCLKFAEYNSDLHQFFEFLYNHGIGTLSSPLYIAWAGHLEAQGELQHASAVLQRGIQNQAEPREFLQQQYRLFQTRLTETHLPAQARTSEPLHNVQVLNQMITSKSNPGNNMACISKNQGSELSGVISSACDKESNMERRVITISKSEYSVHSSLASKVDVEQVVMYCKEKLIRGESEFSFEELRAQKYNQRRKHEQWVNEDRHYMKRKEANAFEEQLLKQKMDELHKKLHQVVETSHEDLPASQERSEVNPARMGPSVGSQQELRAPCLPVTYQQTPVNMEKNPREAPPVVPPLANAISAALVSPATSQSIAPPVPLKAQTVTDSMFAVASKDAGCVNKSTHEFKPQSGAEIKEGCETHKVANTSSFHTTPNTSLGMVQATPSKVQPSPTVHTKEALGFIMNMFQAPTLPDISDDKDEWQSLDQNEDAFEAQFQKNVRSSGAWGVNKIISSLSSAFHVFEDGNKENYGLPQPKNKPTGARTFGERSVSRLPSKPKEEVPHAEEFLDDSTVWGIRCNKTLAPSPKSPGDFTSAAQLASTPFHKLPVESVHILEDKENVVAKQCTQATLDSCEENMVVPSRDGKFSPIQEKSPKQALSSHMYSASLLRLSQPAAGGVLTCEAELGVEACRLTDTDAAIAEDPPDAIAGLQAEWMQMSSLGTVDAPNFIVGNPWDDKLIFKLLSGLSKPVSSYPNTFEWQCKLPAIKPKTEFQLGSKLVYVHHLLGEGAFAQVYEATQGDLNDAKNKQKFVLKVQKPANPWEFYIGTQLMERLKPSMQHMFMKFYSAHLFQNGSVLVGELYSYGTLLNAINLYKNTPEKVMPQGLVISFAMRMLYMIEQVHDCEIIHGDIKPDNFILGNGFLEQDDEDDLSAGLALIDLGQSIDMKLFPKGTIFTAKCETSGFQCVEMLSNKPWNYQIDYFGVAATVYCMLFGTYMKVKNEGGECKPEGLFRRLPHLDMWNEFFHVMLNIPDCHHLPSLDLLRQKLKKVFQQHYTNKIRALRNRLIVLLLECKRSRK
AURKA, sequence (O14965 whole entry): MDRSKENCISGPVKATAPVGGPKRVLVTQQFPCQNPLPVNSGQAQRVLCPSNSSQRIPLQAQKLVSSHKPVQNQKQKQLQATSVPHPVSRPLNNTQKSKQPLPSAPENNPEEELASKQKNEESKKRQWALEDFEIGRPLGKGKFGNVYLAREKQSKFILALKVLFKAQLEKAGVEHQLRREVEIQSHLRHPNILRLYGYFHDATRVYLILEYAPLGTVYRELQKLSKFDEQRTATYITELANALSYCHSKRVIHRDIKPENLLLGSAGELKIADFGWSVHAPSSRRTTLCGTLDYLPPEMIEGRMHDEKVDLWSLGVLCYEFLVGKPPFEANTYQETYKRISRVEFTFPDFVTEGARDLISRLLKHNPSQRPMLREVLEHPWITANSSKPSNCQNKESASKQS
AKT3, sequence (Q9Y243 whole entry): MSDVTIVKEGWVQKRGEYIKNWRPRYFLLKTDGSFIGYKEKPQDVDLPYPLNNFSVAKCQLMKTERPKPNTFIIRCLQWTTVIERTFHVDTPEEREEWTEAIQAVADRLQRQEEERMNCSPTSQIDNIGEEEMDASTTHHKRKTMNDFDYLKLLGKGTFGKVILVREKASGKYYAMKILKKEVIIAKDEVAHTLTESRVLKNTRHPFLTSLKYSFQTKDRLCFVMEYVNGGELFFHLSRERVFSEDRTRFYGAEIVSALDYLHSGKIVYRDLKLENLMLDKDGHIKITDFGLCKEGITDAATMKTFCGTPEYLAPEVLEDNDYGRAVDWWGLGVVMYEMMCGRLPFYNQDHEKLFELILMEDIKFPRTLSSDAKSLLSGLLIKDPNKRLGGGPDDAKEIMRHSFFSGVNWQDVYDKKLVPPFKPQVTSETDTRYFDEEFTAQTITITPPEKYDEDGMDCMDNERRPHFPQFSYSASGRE
CSNK1D, sequence (P48730 whole entry): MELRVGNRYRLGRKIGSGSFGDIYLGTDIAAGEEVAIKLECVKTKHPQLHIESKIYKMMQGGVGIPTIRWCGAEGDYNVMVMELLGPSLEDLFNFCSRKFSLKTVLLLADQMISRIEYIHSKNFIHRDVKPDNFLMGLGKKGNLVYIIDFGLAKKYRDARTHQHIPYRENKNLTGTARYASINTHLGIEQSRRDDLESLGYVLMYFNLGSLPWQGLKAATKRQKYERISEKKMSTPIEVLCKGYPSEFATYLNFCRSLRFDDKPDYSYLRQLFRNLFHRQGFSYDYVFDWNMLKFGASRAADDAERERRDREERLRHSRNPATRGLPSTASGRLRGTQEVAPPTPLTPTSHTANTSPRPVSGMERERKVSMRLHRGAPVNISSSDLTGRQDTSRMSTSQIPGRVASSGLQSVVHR
PKN2, sequence (Q16513 whole entry): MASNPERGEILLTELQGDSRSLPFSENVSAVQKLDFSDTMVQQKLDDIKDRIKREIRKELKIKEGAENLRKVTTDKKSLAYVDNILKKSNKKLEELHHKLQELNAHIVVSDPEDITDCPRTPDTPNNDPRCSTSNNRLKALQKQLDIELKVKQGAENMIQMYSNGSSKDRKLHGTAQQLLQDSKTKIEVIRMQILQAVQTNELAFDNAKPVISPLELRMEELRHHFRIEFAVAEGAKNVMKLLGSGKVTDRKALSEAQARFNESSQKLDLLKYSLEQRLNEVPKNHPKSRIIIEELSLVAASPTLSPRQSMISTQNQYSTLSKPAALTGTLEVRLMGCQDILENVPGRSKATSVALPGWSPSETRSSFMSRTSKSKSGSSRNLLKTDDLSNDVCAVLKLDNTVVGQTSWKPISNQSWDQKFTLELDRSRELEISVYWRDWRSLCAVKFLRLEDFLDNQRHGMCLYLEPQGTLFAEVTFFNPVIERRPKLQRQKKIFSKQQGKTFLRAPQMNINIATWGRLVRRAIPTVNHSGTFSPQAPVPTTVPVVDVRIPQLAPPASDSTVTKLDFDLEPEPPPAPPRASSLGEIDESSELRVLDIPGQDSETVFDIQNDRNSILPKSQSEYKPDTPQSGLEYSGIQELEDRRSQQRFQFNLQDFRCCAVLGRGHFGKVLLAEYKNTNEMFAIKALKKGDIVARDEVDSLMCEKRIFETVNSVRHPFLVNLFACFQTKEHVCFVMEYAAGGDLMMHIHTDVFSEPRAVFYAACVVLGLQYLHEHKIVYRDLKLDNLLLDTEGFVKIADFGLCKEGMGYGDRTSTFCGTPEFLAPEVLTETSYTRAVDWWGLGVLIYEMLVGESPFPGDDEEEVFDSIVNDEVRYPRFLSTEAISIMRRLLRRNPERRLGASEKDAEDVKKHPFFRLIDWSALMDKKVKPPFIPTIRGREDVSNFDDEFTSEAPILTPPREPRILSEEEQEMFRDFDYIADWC
CDK7, sequence (P50613 whole entry): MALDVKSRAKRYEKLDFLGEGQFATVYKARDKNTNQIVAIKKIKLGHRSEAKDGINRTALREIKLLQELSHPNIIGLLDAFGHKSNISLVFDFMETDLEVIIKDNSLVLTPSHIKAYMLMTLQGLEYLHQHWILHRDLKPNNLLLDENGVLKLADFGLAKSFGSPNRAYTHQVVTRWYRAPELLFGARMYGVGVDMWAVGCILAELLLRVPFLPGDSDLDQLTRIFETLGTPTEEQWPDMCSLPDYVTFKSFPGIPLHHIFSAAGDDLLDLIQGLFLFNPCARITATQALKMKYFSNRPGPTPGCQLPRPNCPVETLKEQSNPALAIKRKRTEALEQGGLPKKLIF
CDK7, sequence (P51946 whole entry partner): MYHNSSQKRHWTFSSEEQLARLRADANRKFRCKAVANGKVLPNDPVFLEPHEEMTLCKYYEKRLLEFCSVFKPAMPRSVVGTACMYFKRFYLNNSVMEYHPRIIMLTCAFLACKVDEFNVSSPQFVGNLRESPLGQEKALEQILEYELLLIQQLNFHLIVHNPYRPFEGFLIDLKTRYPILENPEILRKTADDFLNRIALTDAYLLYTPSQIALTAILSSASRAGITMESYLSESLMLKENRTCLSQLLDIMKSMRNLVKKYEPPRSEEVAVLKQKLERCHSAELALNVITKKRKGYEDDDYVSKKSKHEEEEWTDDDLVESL
CDK7, sequence (P51948 whole entry partner): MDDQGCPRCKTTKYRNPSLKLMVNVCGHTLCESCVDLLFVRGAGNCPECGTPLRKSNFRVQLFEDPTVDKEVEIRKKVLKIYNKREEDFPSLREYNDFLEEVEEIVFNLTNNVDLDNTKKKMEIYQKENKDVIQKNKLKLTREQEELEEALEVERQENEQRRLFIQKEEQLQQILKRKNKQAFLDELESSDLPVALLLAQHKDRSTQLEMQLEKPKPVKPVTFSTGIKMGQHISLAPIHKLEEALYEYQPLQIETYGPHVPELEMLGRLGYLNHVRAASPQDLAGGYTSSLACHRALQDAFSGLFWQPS
GSK3β, sequence (P49841 whole entry): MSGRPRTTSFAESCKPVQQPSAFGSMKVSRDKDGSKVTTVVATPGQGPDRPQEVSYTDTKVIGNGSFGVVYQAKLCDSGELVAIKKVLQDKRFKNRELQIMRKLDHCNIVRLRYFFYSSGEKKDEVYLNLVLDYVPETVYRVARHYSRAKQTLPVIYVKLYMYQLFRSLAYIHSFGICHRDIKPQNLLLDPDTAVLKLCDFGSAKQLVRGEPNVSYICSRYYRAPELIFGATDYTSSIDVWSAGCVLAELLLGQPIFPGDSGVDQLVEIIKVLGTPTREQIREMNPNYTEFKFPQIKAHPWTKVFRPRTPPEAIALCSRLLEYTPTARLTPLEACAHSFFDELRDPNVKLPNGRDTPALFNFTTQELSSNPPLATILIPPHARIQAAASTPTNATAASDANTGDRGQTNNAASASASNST

## c1ccc2c(CNNc3ncnc4sc5c(c34)CCCC5)c[nH]c2c1 [B32B3]
CSNK1D
  IC50: > 10 µM
AURKA
  IC50: > 10 µM
CDK7
  IC50: > 10 µM
SYK
  IC50: > 10 µM
PKN2
  IC50: > 10 µM
AKT3
  IC50: > 10 µM
GSK3β
  IC50: > 10 µM
CDK2
  IC50: > 10 µM
[1]
  Cmax: 1000 nM
STK33
  IC50: > 10 µM
MLC cells
  Effect on proliferation of MLC cells: minimally antagonized
BUB1
  IC50: > 10 µM
RSK2
  IC50: 8.6 µM
